The values below come from patent publication US10316032B2, “Solid forms of a compound for modulating kinases” (Plexxikon Inc., priority 2015, dated 2019).

Each structure is given as a SMILES string. ≈ marks a conversion by molar mass, not a printed value.

The nature of series [1]: Interconversion (competitive slurry) experiments Form B / Form H. The series is classed as physicochemical. The note with it: various solvent systems, between ambient temperature and approximately 75° C. As for the experimental part:
Solutions of Compound I were prepared by adding sufficient solids to a given solvent or solvent system at ambient conditions such that undissolved solids were present. The mixture was then agitated in a closed vial at ambient or elevated temperature for an extended period of time. Solids were collected by vacuum filtration and analyzed.

Series [2] in a line: Solubility estimates at ambient temperature (solvent aliquot addition, visual). The format is physicochemical. The note with it: thermodynamic from solid. As for the experimental part:
Aliquots of various solvents were added to measured amounts of Compound I with agitation (typically sonication) at ambient temperature until complete dissolution was achieved, as judged by visual observation. Solubilities were calculated based on the total solvent used to give a solution; actual solubilities may be greater because of the volume of solvent portions utilized or a slow rate of dissolution. […] If dissolution occurred at the first aliquot the value was reported as “>”.

Another series concerns the target B-Raf V600E kinase (Homo sapiens, UniProt P15056, V600E). Put plainly: B-Raf V600E kinase inhibition.

Sequence of B-Raf V600E kinase (P15056 whole entry V600E): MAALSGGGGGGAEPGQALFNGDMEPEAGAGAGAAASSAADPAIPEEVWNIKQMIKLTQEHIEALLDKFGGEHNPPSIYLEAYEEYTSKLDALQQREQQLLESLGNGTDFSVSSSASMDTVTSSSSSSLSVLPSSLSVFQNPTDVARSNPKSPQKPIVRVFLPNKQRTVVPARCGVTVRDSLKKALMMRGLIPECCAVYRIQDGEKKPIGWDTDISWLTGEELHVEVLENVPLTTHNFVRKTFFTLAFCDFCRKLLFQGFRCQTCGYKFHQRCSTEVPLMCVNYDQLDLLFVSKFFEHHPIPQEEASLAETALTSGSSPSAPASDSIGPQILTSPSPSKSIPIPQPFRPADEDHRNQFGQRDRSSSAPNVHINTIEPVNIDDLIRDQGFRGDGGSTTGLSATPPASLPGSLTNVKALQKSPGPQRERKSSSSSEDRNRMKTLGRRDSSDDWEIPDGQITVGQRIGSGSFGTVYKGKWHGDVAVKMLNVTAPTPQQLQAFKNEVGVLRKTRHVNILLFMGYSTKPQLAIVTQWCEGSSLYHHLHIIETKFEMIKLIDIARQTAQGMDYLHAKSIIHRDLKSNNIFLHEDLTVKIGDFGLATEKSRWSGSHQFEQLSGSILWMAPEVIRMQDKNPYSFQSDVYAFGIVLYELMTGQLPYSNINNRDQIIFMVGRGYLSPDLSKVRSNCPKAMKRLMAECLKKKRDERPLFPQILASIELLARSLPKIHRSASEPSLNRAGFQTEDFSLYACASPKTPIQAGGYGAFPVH

By solubility is commonly meant the concentration that dissolves in the medium under given conditions. As to `O=C(c1c(F)ccc(NS(=O)(=O)N2CC[C@@H](F)C2)c1F)c1c[nH]c2ncc(-c3cnc(C4CC4)nc3)cc12` [Compound I Form B, (3R)—N-(3-(5-(2-cyclopropylpyrimidin-5-yl)-1H-pyrrolo[2,3-b]pyridine-3-carbonyl)-2,4-difluorophenyl)-3-fluoropyrrolidine-1-sulfonamide], in series [1] (listed as Form B), the “relative stability of solid forms (competitive slurry)” value is reported as “less stable than Form H”. Besides, the solubility was about 5000 µg/mL (≈ 9.22 mM) in series [2] (aqueous with cosolvent or surfactant or cyclodextrin, EtOH/Water (75/25 vol/vol)); about 5000 µg/mL (≈ 9.22 mM) in series [2] (organic solvent or mixture, ACN); about 36000 µg/mL (≈ 66.4 mM) in series [2] (organic solvent or mixture, Acetone); under 1000 µg/mL in series [2] (organic solvent or mixture, DCM); over 97000 µg/mL in series [2] (organic solvent or mixture, DMF); over 84000 µg/mL in series [2] (organic solvent or mixture, DMSO). Besides, the solubility in series [2] (organic solvent or mixture, Dioxane) was over 103000 µg/mL; in series [2] (organic solvent or mixture, EtOAc), about 5000 µg/mL (≈ 9.22 mM); in series [2] (organic solvent or mixture, EtOH), about 1000 µg/mL (≈ 1.84 mM); in series [2] (organic solvent or mixture, Heptane), under 1000 µg/mL; in series [2] (organic solvent or mixture, IPA), under 1000 µg/mL; in series [2] (organic solvent or mixture, MTBE), under 2000 µg/mL. For the same compound, the solubility is about 4000 µg/mL (≈ 7.37 mM) in series [2] (organic solvent or mixture, MeOH); over 102000 µg/mL in series [2] (organic solvent or mixture, THF); under 2000 µg/mL in series [2] (organic solvent or mixture, t-BuOH); under 1000 µg/mL in series [2] (Water).

Regarding `O=C(c1c(F)ccc(NS(=O)(=O)N2CC[C@@H](F)C2)c1F)c1c[nH]c2ncc(-c3cnc(C4CC4)nc3)cc12` [Compound I Form H, (3R)—N-(3-(5-(2-cyclopropylpyrimidin-5-yl)-1H-pyrrolo[2,3-b]pyridine-3-carbonyl)-2,4-difluorophenyl)-3-fluoropyrrolidine-1-sulfonamide], in series [1] (listed as Form H), the “relative stability of solid forms (competitive slurry)” value is on record as “more stable than Form B”.

A word on the IC50: it is the concentration that inhibits the measured activity by half. A low value points to higher potency. `O=C(c1c(F)ccc(NS(=O)(=O)N2CC[C@@H](F)C2)c1F)c1c[nH]c2ncc(-c3cnc(C4CC4)nc3)cc12` [Compound I, (3R)—N-(3-(5-(2-cyclopropylpyrimidin-5-yl)-1H-pyrrolo[2,3-b]pyridine-3-carbonyl)-2,4-difluorophenyl)-3-fluoropyrrolidine-1-sulfonamide] showed an IC50 on B-Raf V600E kinase of under 100 nM.
